These results are taken from patent publication US11649227B2, “Allosteric chromenone inhibitors of phosphoinositide 3-kinase (PI3K) for the treatment of disease” (Petra Pharma Corporation, priority 2020, dated 2023).

Structures are written as SMILES. A value given as a limit tells only on which side of the number the result lay.

The target of assay [1] is human full length PIK3CA H1047R mutant (p110α/p85α complex) (Homo sapiens (Human), UniProt P42336, H1047R). Briefly: PI3K-Alpha kinase (PIK3CA) activity, H1047R mutant, Transcreener ADP2 FI assay. The note with it: PI3K-α (PIK3CA) H1047R mutant, biochemical. On the procedure:
(§1) PI3K-Alpha kinase (PIK3CA) activity, wild-type and H1047R mutant and determining IC50 values for inhibitors
(§2) Recombinant, catalytically active human full length PIK3KA Wild-type and H1047R mutant were purchased as 1:1 complex of N-terminal 6×his tagged p110<(catalytic) and untagged p85<(regulatory subunit) from EMD Millipore Sigma (cat. no. 14-602M and 14-792M, respectively). The enzyme stocks were diluted to 5× stocks in buffer (20 mM HEPES pH 7.4, 100 mM NaCl, 0.5 mM EGTA, 0.01% triton-x-100) just before use. PIP2diC8 (Avanti Polar Lipids Inc., cat. no. 850185) or phosphoinositol-4,5-bisphosphate with phosphoserine (PIP2:PS) membrane (Thermo Fisher Scientific, cat. no. PV5100) was used as lipid substrates. PIP2diC8 lyophilized powder and PIP2:PS (1:19) membrane stock (1 mM in PIP2) were separately dissolved in milliQ water to a concentration of 250 uM and stored in −20° C. 10 mM stocks of compounds were serially diluted (3×) in neat DMSO and stored in a dessicator at room temperature. 5× compound stocks in 25% DMSO were prepared fresh from neat DMSO stocks. Wild-type (WT) and H1047R mutant protein, along with buffer components (except ATP), were incubated with or without compound at 27° C. for 1h. After incubation, the reaction was initiated by the addition of 5 uL of 125 uM ATP. A typical assay mixture (25 uL) comprised 40 mM HEPES buffer, pH 7.4, 25 mM MgCl2, 0.01% v/v triton-X-100, 5% v/v DMSO, 20 mM NaCl, 1-5 nM wt or H1047R, 25 uM ATP, and 50 uM PTP2diC8 or PTP2 in membrane. The reaction was allowed to proceed until about […] (2.5 uM ADP) after which time, 10 uL of reaction mixture was quenched with 25 uL of transcreener reagent (Transcreener ADP2 FI assay kit, BellBrook labs, Cat. No. 3013). The contents were incubated at rt for 1h and fluorescence was measured using a plate reader (Paradigm, Molecular Devices). The same assay was also run at pH 6.0 or 6.4 using MOPS buffer (Fisher BioReagents, CAS 1132-61-2). A calibration curve was generated under identical buffer conditions with varying ADP amounts. Using that, the observed fluorescence was converted to uM ADP. A plot between [ADP] and log[I] yielded the dose-response curves that enabled the calculation of IC50s.

Assay [2] addresses human full length PIK3CA Wild-type (p110α/p85α complex) (Homo sapiens (Human), UniProt P42336). Briefly: PI3K-Alpha kinase (PIK3CA) activity, wild-type, Transcreener ADP2 FI assay. As to conditions: PI3K-α (PIK3CA) wild-type, biochemical. Here is the method:
as §1, §2

human full length PIK3CA H1047R mutant (p110α/p85α complex), sequence (P42336 whole entry H1047R): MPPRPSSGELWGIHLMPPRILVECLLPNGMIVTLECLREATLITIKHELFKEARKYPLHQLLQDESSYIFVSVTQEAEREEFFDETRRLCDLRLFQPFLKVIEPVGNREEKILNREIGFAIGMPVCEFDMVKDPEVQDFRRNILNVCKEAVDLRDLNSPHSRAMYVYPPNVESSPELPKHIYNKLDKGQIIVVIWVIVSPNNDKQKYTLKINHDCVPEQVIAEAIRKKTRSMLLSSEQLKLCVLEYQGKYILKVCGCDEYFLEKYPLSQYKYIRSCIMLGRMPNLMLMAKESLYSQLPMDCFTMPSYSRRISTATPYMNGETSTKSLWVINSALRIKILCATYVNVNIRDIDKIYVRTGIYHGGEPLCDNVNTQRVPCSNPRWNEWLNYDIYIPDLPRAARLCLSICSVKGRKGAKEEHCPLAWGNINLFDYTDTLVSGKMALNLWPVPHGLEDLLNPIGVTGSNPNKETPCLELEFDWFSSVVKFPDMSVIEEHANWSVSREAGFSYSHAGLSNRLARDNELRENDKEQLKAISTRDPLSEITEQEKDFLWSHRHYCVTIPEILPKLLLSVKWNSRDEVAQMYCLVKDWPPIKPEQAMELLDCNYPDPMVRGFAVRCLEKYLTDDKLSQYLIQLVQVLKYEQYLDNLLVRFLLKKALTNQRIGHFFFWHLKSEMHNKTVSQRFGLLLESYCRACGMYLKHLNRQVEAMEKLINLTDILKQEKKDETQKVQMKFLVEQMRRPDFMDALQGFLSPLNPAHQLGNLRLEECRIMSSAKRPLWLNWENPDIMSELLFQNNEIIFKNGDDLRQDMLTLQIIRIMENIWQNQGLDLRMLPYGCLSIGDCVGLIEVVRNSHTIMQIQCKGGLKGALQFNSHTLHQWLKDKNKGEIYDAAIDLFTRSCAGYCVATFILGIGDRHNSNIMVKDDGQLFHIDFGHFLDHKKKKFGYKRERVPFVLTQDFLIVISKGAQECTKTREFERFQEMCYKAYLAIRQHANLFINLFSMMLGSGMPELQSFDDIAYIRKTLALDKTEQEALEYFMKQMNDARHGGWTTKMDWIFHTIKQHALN
human full length PIK3CA H1047R mutant (p110α/p85α complex), sequence (P27986 whole entry partner): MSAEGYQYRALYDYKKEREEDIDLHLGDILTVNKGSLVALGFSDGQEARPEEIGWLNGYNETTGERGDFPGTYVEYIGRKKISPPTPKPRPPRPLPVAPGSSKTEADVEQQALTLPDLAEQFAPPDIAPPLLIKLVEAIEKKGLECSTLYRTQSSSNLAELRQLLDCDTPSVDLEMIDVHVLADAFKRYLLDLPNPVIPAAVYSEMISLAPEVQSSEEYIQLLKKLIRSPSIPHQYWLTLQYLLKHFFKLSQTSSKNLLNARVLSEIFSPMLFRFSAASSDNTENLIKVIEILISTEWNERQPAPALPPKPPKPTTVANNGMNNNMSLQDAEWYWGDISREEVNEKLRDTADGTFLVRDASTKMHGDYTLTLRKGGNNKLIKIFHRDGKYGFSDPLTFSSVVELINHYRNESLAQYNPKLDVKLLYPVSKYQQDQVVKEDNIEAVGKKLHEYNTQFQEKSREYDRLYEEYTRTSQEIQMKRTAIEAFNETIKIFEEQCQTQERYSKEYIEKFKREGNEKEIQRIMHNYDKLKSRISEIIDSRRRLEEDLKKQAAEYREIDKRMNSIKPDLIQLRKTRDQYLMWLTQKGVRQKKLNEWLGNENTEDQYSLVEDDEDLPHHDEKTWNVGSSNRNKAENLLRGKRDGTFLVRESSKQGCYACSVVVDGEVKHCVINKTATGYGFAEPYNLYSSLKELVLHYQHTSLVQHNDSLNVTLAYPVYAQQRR
human full length PIK3CA Wild-type (p110α/p85α complex), sequence (P42336 whole entry): as the sequence (P42336 whole entry H1047R) above, with R1047H counted along it
human full length PIK3CA Wild-type (p110α/p85α complex), sequence (P27986 whole entry partner): as the sequence (P27986 whole entry partner) above

As usually defined, the IC50 is the concentration that inhibits the measured activity by half. Lower therefore signals higher potency. On to `Cc1cc(C(C)Nc2ccccc2C(=O)O)c2oc(N3CC4(C3)CC(F)(F)C4)cc(=O)c2c1` (single isomer, unassigned) [Example 222, 2-[1[2-(6,6-Difluoro-2-azaspiro[3.3]heptan-2-yl)-6-methyl-4-oxo-chromen-8-yl]ethylamino]benzoic acid 2,2,2-trifluoroacetic acid], for which the IC50 in assay [1] was below 500 nM; in assay [2] it was 1000 to 5000 nM.
Take `Cc1cc(C(C)Nc2ccccc2C(=O)O)c2oc(N3CC(c4ccccc4)C3)cc(=O)c2c1` (single isomer, unassigned) [Example 236, 2-[1-[6-Methyl-4-oxo-2-(3-phenylazetidin-1-yl)chromen-8-yl]ethylamino]benzoic acid 2,2,2-trifluoroacetic acid]: the figures for the IC50 in assay [1] and in assay [2] were below 500 nM and 500 to 1000 nM, respectively.
The matching figures for `Cc1cc(C(C)Nc2cccc(F)c2C(=O)O)c2oc(N3Cc4ccc(F)cc4C3)c(C)c(=O)c2c1` (single isomer, unassigned) [Example 244, 2-Fluoro-6-[1-[2-(5-fluoroisoindolin-2-yl)-3,6-dimethyl-4-oxo-chromen-8-yl]ethylamino]benzoic acid]: above 10000 nM and 5000 to 10000 nM.
The matching figures for `Cc1cc(C(C)Nc2ccccc2C(=O)O)c2oc(N3Cc4ccc(F)cc4C3)c(C)c(=O)c2c1` (single isomer, unassigned) [Example 272, 2-[1-[2-(5-Fluoroisoindolin-2-yl)-3,6-dimethyl-4-oxo-chromen-8-yl]ethylamino]benzoic acid]: below 500 nM and 500 to 1000 nM.
The matching figures for `Cc1c(N2Cc3ccc(F)cc3C2)oc2c(C(C)Nc3ccccc3C(=O)O)cc(F)cc2c1=O` (single isomer, unassigned) [Example 319, 2-[1-[6-Fluoro-2-(5-fluoroisoindolin-2-yl)-3-methyl-4-oxo-chromen-8-yl]ethylamino]benzoic acid]: below 500 nM and 500 to 1000 nM.
As to `Cc1c(N2Cc3ccccc3C2)oc2c(C(C)Nc3ccccc3C(=O)O)cc(F)cc2c1=O` (single isomer, unassigned) [Example 324, 2-[1-(6-Fluoro-2-isoindolin-2-yl-3-methyl-4-oxo-chromen-8-yl)ethylamino]benzoic acid], the IC50 in assay [1] and in assay [2] was below 500 nM each time.
In the case of `Cc1c(N2CCC(F)(F)CC2)oc2c(C(C)Nc3ccccc3C(=O)O)cc(F)cc2c1=O` (single isomer, unassigned) [Example 326, 2-[1-[2-(4,4-Difluoro-1-piperidyl)-6-fluoro-3-methyl-4-oxo-chromen-8-yl]ethylamino]benzoic acid], the IC50 in assay [1] and in assay [2] was below 500 nM each time.
In the case of `Cc1c(N2CCC3(CC2)CC3)oc2c(C(C)Nc3ccccc3C(=O)O)cc(F)cc2c1=O` (single isomer, unassigned) [Example 328, 2-[1-[2-(6-Azaspiro[2.5]octan-6-yl)-6-fluoro-3-methyl-4-oxo-chromen-8-yl]ethylamino]benzoic acid], the IC50 in assay [1] and in assay [2] was below 500 nM throughout.
For the compound `CC(Nc1ccccc1C(=O)O)c1cc(C(F)(F)F)cc2c(=O)cc(N3Cc4ccc(F)cc4C3)oc12` (single isomer, unassigned) [Example 335, 2-[1-[2-(5-Fluoroisoindolin-2-yl)-4-oxo-6-(trifluoromethyl)chromen-8-yl]ethylamino]benzoic acid], the IC50 in assay [1] was below 500 nM; in assay [2] it was 500 to 1000 nM.
With `CC(Nc1ccccc1C(=O)O)c1cc(C(F)(F)F)cc2c(=O)cc(N3Cc4ccccc4C3)oc12` (single isomer, unassigned) [Example 342, 2-[1-[2-Isoindolin-2-yl-4-oxo-6-(trifluoromethyl)chromen-8-yl]ethylamino]benzoic acid], the IC50 in assay [1] and in assay [2] was below 500 nM throughout.
